# Where a name gives a salt, the structure may show the parent alone.
# Key:
# [1] = target: T1, dipeptidyl peptidase-IV enzyme (DPP-4) (Homo sapiens, UniProt P27487); assay: DPP-4 inhibition, continuous fluorometric assay with substrate Gly-Pro-AMC; type: biochemical; conditions: soluble human DPP-4, 50 μM Gly-Pro-AMC, pH 7.5, room temperature
# T1 construct: The enzyme used in these studies was soluble (transmembrane domain and cytoplasmic extension excluded) human protein; made in house; host or cells: baculovirus expression system (Bac-To-Bac, Gibco BRL)
# T1 sequence (P27487 29-766 limits assumed): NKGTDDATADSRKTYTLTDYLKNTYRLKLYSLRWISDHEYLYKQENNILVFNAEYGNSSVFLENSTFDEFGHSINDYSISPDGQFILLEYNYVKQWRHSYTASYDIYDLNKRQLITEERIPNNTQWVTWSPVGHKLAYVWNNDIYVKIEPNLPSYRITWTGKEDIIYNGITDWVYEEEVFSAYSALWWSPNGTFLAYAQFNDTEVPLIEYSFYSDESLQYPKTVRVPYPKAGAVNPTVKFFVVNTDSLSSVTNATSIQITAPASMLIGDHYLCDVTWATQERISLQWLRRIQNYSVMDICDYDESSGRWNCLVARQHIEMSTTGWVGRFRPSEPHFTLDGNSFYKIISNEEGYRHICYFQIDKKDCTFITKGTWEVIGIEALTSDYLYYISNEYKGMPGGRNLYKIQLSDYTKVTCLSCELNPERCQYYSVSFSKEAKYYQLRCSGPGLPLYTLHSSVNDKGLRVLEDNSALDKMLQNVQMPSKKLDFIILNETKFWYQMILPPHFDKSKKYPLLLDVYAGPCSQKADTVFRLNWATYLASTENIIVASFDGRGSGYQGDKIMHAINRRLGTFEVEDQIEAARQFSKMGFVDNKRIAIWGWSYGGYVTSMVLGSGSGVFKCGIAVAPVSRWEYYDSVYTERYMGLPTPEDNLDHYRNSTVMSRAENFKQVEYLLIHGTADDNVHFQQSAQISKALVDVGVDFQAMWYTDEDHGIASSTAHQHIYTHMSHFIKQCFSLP
# Procedure: Inhibition constants are determined as follows. A continuous fluorometric assay is employed with the substrate Gly-Pro-AMC, which is cleaved by DPP-4 to release the fluorescent AMC leaving group. […] A typical reaction contains approximately 50 pM enzyme, 50 μM Gly-Pro-AMC, and buffer (100 mM HEPES, pH 7.5, 0.1 mg/mL BSA) in a total reaction volume of 100 μL. Liberation of AMC is monitored continuously in a 96-well plate fluorometer using an excitation wavelength of 360 nm and an emission wavelength of 460 nm. Under these conditions, approximately 0.8 μM AMC is produced in 30 min at 25 degrees C. The enzyme used in these studies was soluble (transmembrane domain and cytoplasmic extension excluded) human protein produced in a baculovirus expression system (Bac-To-Bac, Gibco BRL). […] To measure the dissociation constants for compounds, solutions of inhibitor in DMSO were added to reactions containing enzyme and substrate (final DMSO concentration is 1%). All experiments were conducted at room temperature using the standard reaction conditions described above. To determine the dissociation constants (Ki), reaction rates were fit by non-linear regression to the Michaelis-Menton equation for competitive inhibition. The errors in reproducing the dissociation constants are typically less than two-fold.
# [2] = test system: cardiac allograft survival; conditions: rats; survival from day 7 to day 14; Transplantation 63:1495-1500 (1997); cited from earlier work
# [3] = test system: hematopoiesis; conditions: mouse, cyclophosphamide-induced neutropenia; WO 99/56753; cited from earlier work
# [4] = target: DPP-4 (Homo sapiens, UniProt P27487); conditions: cited from earlier work
# Chain of DPP-4 (P27487 39-766 limits assumed, species assumed): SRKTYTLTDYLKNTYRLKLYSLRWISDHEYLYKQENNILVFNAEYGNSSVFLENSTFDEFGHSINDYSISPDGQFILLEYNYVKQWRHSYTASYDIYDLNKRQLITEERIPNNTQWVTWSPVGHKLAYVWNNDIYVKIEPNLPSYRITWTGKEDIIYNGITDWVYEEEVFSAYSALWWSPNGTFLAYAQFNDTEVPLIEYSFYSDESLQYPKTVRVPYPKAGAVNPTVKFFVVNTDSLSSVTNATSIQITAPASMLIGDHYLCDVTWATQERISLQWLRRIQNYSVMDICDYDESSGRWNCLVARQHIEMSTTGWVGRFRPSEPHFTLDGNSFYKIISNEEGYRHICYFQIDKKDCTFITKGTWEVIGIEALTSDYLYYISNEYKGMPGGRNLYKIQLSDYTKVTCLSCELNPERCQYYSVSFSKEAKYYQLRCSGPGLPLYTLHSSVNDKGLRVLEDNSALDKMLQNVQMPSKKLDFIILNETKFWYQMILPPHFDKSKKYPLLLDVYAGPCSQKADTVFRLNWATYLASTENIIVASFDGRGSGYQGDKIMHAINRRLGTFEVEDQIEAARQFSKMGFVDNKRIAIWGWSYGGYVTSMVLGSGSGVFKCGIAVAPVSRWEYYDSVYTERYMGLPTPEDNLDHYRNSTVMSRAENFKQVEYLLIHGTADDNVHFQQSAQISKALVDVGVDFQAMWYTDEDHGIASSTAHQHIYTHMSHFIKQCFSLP
IC50 [1] [nM],Molecule,further results
6.8,"NC(=O)Cn1cc2c(n1)CN([C@H]1CO[C@H](c3cc(F)ccc3F)[C@@H](N)C1)C2 [Example 1, 2-{5-[(3R,5S,6R)-5-amino-6-(2,5-difluorophenyl)tetrahydro-2H-pyran-3-yl]-5,6-dihydropyrrolo[3,4-c]pyrazol-2(4H)-yl}acetamide]",–
8.1,"COC(=O)Cn1cc2c(n1)CN([C@H]1CO[C@H](c3cc(F)ccc3F)[C@@H](N)C1)C2 [Example 2, Methyl {5-[(3R,5S,6R)-5-amino-6-(2,5-difluorophenyl)tetrahydro-2H-pyran-3-yl]-5,6-dihydropyrrolo[3,4-c]pyrazol-2(4B)-yl}acetate]",–
9.4,"N[C@H]1C[C@@H](N2Cc3cn(CC(=O)O)nc3C2)CO[C@@H]1c1cc(F)ccc1F [Example 3, {5-[(3R,5S,6R)-5-amino-6-(2,5-difluorophenyl)tetrahydro-2H-pyran-3-yl]-5,6-dihydropyrrolo[3,4-c]pyrazol-2(4H)-yl}acetic acid hydrochloride salt]",–
11,"N[C@H]1C[C@@H](N2Cc3cn(CCO)nc3C2)CO[C@@H]1c1cc(F)ccc1F [Example 4, 2-{5-[(3R,5S,6R)-5-amino-6-(2,5-difluorophenyl)tetrahydro-2H-pyran-3-yl]-5,6-dihydropyrrolo[3,4-c]pyrazol-2(4H)-yl}ethanol]",–
9.3,"CC(C)(O)Cn1cc2c(n1)CN([C@H]1CO[C@H](c3cc(F)ccc3F)[C@@H](N)C1)C2 [Example 5, 1-{5-[(3R,5S,6R)-5-amino-6-(2,5-difluorophenyl)tetrahydro-2H-pyran-3-yl]-5,6-dihydropyrrolo[3,4-c]pyrazol-2(4H)-yl}-2-methylpropan-2-ol]",–
4,"CC(C)(O)Cn1ncc2c1CN([C@H]1CO[C@H](c3cc(F)ccc3F)[C@@H](N)C1)C2 [Example 6, 1-{5-[(3R,5S,6R)-5-amino-6-(2,5-difluorophenyl)tetrahydro-2H-pyran-3-yl]-5,6-dihydropyrrolo-[3,4-c]pyrazol-1(4H)-yl}-2-methylpropan-2-ol]",–
7.5,NC(=O)Cn1ncc2c1CN([C@H]1CO[C@H](c3cc(F)ccc3F)[C@@H](N)C1)C2 [Example 7],–
8.9,NC(=O)Cn1cc2c(n1)CN([C@H]1CO[C@H](c3cc(F)c(F)cc3F)[C@@H](N)C1)C2 [Example 8],–
7.4,NC(=O)Cn1ncc2c1CN([C@H]1CO[C@H](c3cc(F)c(F)cc3F)[C@@H](N)C1)C2 [Example 9],–
12,COC(=O)Cn1cc2c(n1)CN([C@H]1CO[C@H](c3cc(F)c(F)cc3F)[C@@H](N)C1)C2 [Example 10],–
9.2,CC(C)(O)Cn1ncc2c1CN([C@H]1CO[C@H](c3cc(F)c(F)cc3F)[C@@H](N)C1)C2 [Example 12],–
0.89,N#Cc1[nH]nc2c1CN([C@H]1CO[C@H](c3cc(F)ccc3F)[C@@H](N)C1)C2 [Example 13],–
0.6,N[C@H]1C[C@@H](N2Cc3n[nH]c(-c4nnn[nH]4)c3C2)CO[C@@H]1c1cc(F)ccc1F [Example 14],–
–,"CC(C)N1CCC(c2ccccc2)(c2ccccc2)CC1 [Prodipine, Pro-Pro-diphenyl-phosphonate]",cardiac allograft survival [2]: double cardiac allograft survival
–,CC(C)[C@H](N)C(=O)N1CCC[C@H]1B(O)O [Val-Boro-Pro],hematopoiesis [3]: stimulated hematopoiesis
–,diprotin A,degradation of GRF in plasma to GRF[3-44] [4]: prevented

# From patent publication US8455533B2, “Aminotetrahydropyrans as dipeptidyl peptidase-IV inhibitors for the treatment or prevention of diabetes” (Merck Sharp & Dohme Corp., priority 2009, dated 2013)
